Where no end group is shown, it is not given here.
These substances were tested against T1, binding of the integrin α4 β1 to VCAM (Homo sapiens, UniProt P05556+P13612) (assay: Cell-cell assay: 35S-labelled Ramos cells binding to VCAM expressing CHO cells). Details: single concentration at which SEQ ID NO:9 gives approximately 50% inhibition of adhesion; SEQ ID NO:9 = 1.00; >2.00 indicates little or no inhibition of VCAM-α4 β1 binding.
T1 construct: endogenous in cells; host or cells: Ramos (human B-cell line) for endogenous α4β1; CHO cells stably transfected with human VCAM cDNA for the counter-receptor
Assay type: cell-based
Source text: The VCAM-1 binding assays involved assessing the ability of cells that express α4 β1 to bind cells expressing VCAM (cell-cell assay) or to bind purified VCAM protein (cell-protein assay). The integrin-expressing cell types used in these assays included the human B-cell line, Ramos, and the human promyelocytic line, HL-60. The cell-cell assay was used to compare the relative potency of peptides at a single dose. The cell-protein assay was used to generate dose response curves and determine IC50 values. A human VCAM cDNA was amplified by the polymerase chain reaction (PCR) from cDNA reverse transcribed from RNA isolated from human umbilical vein endothelial cells. The VCAM cDNA was ligated into a mammalian expression vector and electroporated into chinese hamster ovary (CHO) cells. Cells were grown in G418 selective media and clones expressing high levels of VCAM were selected by FACS analysis. VCAM expressing CHO cells and nontransfected CHO cells were plated in 48 well cluster dishes at a density of 50,000 cells/well 24 hour prior to assay. The dishes were washed with binding buffer (DMEM, 1% BSA, 1.0 mM MnCl2, 0.02% sodium azide, pH 7.4) immediately prior to assay. […] Unbound cells were removed by washing with binding buffer and the remaining bound cells were lysed with 50 mM Tris, pH 8.0, 150 mM NaCl, 1% SDS and transferred to scintillation vials for quantitation.

T1 sequence (P13612 34-1032): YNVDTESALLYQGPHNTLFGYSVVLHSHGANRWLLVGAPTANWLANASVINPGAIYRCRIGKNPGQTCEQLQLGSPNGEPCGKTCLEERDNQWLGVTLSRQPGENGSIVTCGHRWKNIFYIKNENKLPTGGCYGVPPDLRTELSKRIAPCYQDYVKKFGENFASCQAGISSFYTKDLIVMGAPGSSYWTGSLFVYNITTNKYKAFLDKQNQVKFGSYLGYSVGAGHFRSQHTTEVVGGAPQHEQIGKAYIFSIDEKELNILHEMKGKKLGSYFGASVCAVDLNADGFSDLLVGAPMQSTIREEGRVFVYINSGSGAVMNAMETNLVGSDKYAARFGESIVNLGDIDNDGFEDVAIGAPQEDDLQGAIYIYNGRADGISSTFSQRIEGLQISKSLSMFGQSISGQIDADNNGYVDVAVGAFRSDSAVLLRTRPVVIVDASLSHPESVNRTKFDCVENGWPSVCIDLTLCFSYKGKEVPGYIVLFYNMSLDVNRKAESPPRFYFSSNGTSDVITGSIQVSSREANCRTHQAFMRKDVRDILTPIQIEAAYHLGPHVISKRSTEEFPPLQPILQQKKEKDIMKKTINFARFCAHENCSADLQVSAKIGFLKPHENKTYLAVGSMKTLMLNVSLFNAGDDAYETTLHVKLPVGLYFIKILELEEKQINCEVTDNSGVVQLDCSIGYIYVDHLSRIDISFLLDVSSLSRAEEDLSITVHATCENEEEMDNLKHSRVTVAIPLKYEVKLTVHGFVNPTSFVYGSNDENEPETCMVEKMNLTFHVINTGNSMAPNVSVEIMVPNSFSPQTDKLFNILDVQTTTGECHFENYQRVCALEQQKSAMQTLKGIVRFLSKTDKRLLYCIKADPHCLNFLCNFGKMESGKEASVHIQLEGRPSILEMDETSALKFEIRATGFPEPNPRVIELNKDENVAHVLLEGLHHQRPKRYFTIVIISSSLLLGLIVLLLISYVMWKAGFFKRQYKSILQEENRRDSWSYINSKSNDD
T1 sequence (P05556 21-798): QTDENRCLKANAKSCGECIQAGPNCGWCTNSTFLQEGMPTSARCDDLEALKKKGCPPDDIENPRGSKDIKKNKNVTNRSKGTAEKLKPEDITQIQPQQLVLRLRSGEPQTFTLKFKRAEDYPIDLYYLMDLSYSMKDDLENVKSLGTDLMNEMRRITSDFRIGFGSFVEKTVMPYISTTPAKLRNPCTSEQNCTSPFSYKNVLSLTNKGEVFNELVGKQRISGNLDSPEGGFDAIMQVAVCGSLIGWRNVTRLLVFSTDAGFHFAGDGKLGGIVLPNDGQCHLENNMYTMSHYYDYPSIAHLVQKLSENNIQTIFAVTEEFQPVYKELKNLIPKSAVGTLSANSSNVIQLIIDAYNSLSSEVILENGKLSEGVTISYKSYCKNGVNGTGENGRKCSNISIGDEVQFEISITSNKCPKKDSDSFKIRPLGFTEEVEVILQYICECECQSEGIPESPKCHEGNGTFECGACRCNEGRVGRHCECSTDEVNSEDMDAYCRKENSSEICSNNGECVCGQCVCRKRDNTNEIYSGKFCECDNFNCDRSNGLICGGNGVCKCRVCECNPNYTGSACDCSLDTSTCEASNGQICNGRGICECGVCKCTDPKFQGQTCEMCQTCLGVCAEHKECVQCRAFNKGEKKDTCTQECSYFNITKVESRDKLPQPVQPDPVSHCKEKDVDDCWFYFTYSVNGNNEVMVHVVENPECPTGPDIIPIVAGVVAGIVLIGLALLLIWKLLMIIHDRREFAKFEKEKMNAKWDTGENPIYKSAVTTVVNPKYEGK

Row | Substance | relative quantity of adhered cells in relationship to peptide SEQ ID NO:9
1 | GPAWLDVP-NH2 [SEQ ID NO:9 E→A, Gly-Pro-Ala-Trp-Leu-Asp-Val-Pro-amide] | 1.47
2 | GPCWLDVP-NH2 [SEQ ID NO:9 E→C, Gly-Pro-Cys-Trp-Leu-Asp-Val-Pro-amide] | 1.49
3 | GPDWLDVP-NH2 [SEQ ID NO:9 E→D, Gly-Pro-Asp-Trp-Leu-Asp-Val-Pro-amide] | 1.54
4 | GPEALDVP-NH2 [SEQ ID NO:9 W→A, Gly-Pro-Glu-Ala-Leu-Asp-Val-Pro-amide] | 1.64
5 | GPECLDVP-NH2 [SEQ ID NO:9 W→C, Gly-Pro-Glu-Cys-Leu-Asp-Val-Pro-amide] | 1.45
6 | GPEDLDVP-NH2 [SEQ ID NO:9 W→D, Gly-Pro-Glu-Asp-Leu-Asp-Val-Pro-amide] | 1.62
7 | GPEWLCVP-NH2 [SEQ ID NO:9 D→C, Gly-Pro-Glu-Trp-Leu-Cys-Val-Pro-amide] | 1.78
8 | GPEWLDDP-NH2 [SEQ ID NO:9 V→D, Gly-Pro-Glu-Trp-Leu-Asp-Asp-Pro-amide] | 2.39
9 | GPEWLDEP-NH2 [SEQ ID NO:9 V→E, Gly-Pro-Glu-Trp-Leu-Asp-Glu-Pro-amide] | 2.33
10 | GPEWLDFP-NH2 [SEQ ID NO:9 V→F, Gly-Pro-Glu-Trp-Leu-Asp-Phe-Pro-amide] | 1.13
11 | GPEWLDGP-NH2 [SEQ ID NO:9 V→G] | 1.67
12 | GPEWLDHP-NH2 [SEQ ID NO:9 V→H] | 1.77
13 | GPEWLDIP-NH2 [SEQ ID NO:9 V→I] | 1.81
14 | GPEWLDKP-NH2 [SEQ ID NO:9 V→K] | 2.68
15 | GPEWLDLP-NH2 [SEQ ID NO:9 V→L] | 1.54
16 | GPEWLDMP-NH2 [SEQ ID NO:9 V→M] | 2.46
17 | GPEWLDNP-NH2 [SEQ ID NO:9 V→N] | 2.31
18 | GPEWLDPP-NH2 [SEQ ID NO:9 V→P] | 2.45
19 | GPEWLDQP-NH2 [SEQ ID NO:9 V→Q] | 1.97
20 | GPEWLDRP-NH2 [SEQ ID NO:9 V→R] | 1.52
21 | GPEWLDSP-NH2 [SEQ ID NO:9 V→S] | 1.54
22 | GPEWLDWP-NH2 [SEQ ID NO:9 V→W, Gly-Pro-Glu-Trp-Leu-Asp-Trp-Pro-amide] | 1.08
23 | GPEWLDYP-NH2 [SEQ ID NO:9 V→Y, Gly-Pro-Glu-Trp-Leu-Asp-Tyr-Pro-amide] | 0.80
24 | GPEWLEVP-NH2 [SEQ ID NO:9 D→E, Gly-Pro-Glu-Trp-Leu-Glu-Val-Pro-amide] | 1.77

Row | Substance | relative quantity of adhered cells in relationship to peptide SEQ ID NO:9
25 | GPEWLFVP-NH2 [SEQ ID NO:9 D→F, Gly-Pro-GluoTrp-Leu-Phe-Val-Pro-amide] | 1.94
26 | GPEWLHVP-NH2 [SEQ ID NO:9 D→H, Gly-Pro-Glu-Trp-Leu-His-Val-Pro-amide] | 1.74
27 | GPEWLKVP-NH2 [SEQ ID NO:9 D→K, Gly-Pro-Glu-Trp-Leu-Lys-Val-Pro-amide] | 1.74
28 | GPEWLMVP-NH2 [SEQ ID NO:9 D→M, Gly-Pro-Glu-Trp-Leu-Met-Val-Pro-amide] | 1.76
29 | GPEWLPVP-NH2 [SEQ ID NO:9 D→P, Gly-Pro-Glu-Trp-Leu-Pro-Val-Pro-amide] | 2.19
30 | GPEWLQVP-NH2 [SEQ ID NO:9 D→Q, Gly-Pro-Glu-Trp-Leu-Gln-Val-Pro-amide] | 2.35
31 | GPEWLRVP-NH2 [SEQ ID NO:9 D→R, Gly-Pro-Glu-Trp-Leu-Arg-Val-Pro-amide] | 2.14
32 | GPFWLDVP-NH2 [SEQ ID NO:9 E→F, Gly-Pro-Phe-Trp-Leu-Asp-Val-Pro-amide] | 1.64
33 | GPGWLDVP-NH2 [SEQ ID NO:9 E→G, Gly-Pro-Gly-Trp-Leu-Asp-Val-Pro-amide] | 1.33
34 | GPHWLDVP-NH2 [SEQ ID NO:9 E→H, Gly-Pro-His-Trp-Leu-Asp-Val-Pro-amide] | 1.23
35 | GPIWLDVP-NH2 [SEQ ID NO:9 E→I, Gly-Pro-Ile-Trp-Leu-Asp-Val-Pro-amide] | 1.44
36 | GPKWLDVP-NH2 [SEQ ID NO:9 E→K, Gly-Pro-Lys-Trp-Leu-Asp-Val-Pro-amide] | 1.34
37 | GPLWLDVP-NH2 [SEQ ID NO:9 E→L, Gly-Pro-Leu-Trp-Leu-Asp-Val-Pro-amide] | 1.62
38 | GPMWLDVP-NH2 [SEQ ID NO:9 E→M, Gly-Pro-Met-Trp-Leu-Asp-Val-Pro-amide] | 1.42
39 | GPNWLDVP-NH2 [SEQ ID NO:9 E→N, Gly-Pro-Asn-Trp-Leu-Asp-Val-Pro-amide] | 0.94
40 | GPPWLDVP-NH2 [SEQ ID NO:9 E→P, Gly-Pro-Pro-Trp-Leu-Asp-Val-Pro-amide] | 0.98
41 | GPQWLDVP-NH2 [SEQ ID NO:9 E→Q, Gly-ProoGln-Trp-Leu-Asp-Val-Pro-amide] | 0.93
42 | GPRWLDVP-NH2 [SEQ ID NO:9 E→R, Gly-Pro-Arg-Trp-Leu-Asp-Val-Pro-amide] | 1.52
43 | GPSWLDVP-NH2 [SEQ ID NO:9 E→S, Gly-Pro-Ser-Trp-Leu-Asp-Val-Pro-amide] | 0.85
44 | GPTWLDVP-NH2 [SEQ ID NO:9 E→T, Gly-Pro-Thr-Trp-Leu-Asp-Val-Pro-amide] | 0.98
45 | GPVWLDVP-NH2 [SEQ ID NO:9 E→V, Gly-Pro-Val-Trp-Leu-Asp-Val-Pro-amide] | 1.04
46 | GPWWLDVP-NH2 [SEQ ID NO:9 E→W, Gly-Pro-Trp-Trp-Leu-Asp-Val-Pro-amide] | 1.17
47 | GPYWLDVP-NH2 [SEQ ID NO:9 E→Y, Gly-Pro-Tyr-Trp-Leu-Asp-Val-Pro-amide] | 0.96

Source: patent publication US5510332A, “Process to inhibit binding of the integrin α4 62 1 to VCAM-1 or fibronectin and linear peptides therefor” (priority 1994, dated 1996)
